Experimental data: paper PMC7092418 (Genes and Environment, 2020)

Columns and labels:
[1] = tested on: S. typhimurium YG9028; details: Salmonella typhimurium
[2] = tested on: rat; details: in vivo; cited from earlier work

| Compound | Specific mutagenicity [1] | Carcinogenicity [2] |
| --- | --- | --- |
| COS(C)(=O)=O [MMS, Methylmethane sulfonate] | 0.205 revertants/plate/nmole | – |
| [N-]=[N+]=[N-].[Na+] [sodium azide] | – | non-carcinogenic |
